Our source for the IC50 values is patent US12637433B2, “Histone deacetylase inhibitors” (THE UNIVERSITY OF QUEENSLAND, priority 2020, dated 2026).

Holding throughout (type): biochemical
Assay [1] concerns the target T1, human HDAC1 enzyme (Homo sapiens, UniProt Q13547).
T1 construct: purchased BPS Bioscience
Kind of assay: Human HDAC1 enzyme assay (Class I HDACs). The procedure: The inhibitory effect of compounds on HDAC1 activity was assessed in vitro using an optimised assay performed in black/flat black wall 384-well plate (Corning Inc.). All reagents and compounds were prepared in HDAC1 assay buffer (25 mM Tris-HCl, 137 mM NaCl, 2.7 mM KCl, 1 mM MgCl2·H2O and 0.1 mg/mL bovine serum albumin; pH 8). Various concentrations of inhibitor were pre-incubated with 50 ng/mL human HDAC1 enzyme (BPS Bioscience) for 30 min at room temperature on a plate shaker. Substrate (Leu(Ac)-Gly-Lys(Ac)-AMC, 12 μM) were then added and incubated for 90 min at 37° C. in the dark. The enzymatic reaction was then incubated with the developer solution (1 mg/mL trypsin and 25 μM SAHA) for 15-20 min at room temperature. Fluorescence intensity was measured using PHERAstar plate reader (BMG Labtech) at 350 nm excitation and 460 nm emission.
(§1) Data analysis: Triplicate measurements were made for each data point and error bars represent mean±SEM of three independent experiments. All data were plotted and analysed using GraphPad Prism Version 6.0d for Mac OS X (GraphPad Software). Dose Response Curves plotted using 4 parameters logistic model.

Assay [2] addresses T2, human HDAC7 enzyme (Homo sapiens, UniProt Q8WUI4).
T2 construct: purchased Reaction Biology Corp
The assay is described as follows: Human HDAC7 enzyme assay (Class IIa HDACs). The following applies: Table 8; recombinant human HDAC7.

The target of assay [3] is HDAC4 (Homo sapiens, UniProt P56524). The assay is described as follows: Isoform selectivity, HDAC4 inhibition. The note with it: Table 9; recombinant human HDAC; read-out: IC50, Class IIa HDAC4.
Chain of HDAC4 (P56524 whole entry, canonical isoform): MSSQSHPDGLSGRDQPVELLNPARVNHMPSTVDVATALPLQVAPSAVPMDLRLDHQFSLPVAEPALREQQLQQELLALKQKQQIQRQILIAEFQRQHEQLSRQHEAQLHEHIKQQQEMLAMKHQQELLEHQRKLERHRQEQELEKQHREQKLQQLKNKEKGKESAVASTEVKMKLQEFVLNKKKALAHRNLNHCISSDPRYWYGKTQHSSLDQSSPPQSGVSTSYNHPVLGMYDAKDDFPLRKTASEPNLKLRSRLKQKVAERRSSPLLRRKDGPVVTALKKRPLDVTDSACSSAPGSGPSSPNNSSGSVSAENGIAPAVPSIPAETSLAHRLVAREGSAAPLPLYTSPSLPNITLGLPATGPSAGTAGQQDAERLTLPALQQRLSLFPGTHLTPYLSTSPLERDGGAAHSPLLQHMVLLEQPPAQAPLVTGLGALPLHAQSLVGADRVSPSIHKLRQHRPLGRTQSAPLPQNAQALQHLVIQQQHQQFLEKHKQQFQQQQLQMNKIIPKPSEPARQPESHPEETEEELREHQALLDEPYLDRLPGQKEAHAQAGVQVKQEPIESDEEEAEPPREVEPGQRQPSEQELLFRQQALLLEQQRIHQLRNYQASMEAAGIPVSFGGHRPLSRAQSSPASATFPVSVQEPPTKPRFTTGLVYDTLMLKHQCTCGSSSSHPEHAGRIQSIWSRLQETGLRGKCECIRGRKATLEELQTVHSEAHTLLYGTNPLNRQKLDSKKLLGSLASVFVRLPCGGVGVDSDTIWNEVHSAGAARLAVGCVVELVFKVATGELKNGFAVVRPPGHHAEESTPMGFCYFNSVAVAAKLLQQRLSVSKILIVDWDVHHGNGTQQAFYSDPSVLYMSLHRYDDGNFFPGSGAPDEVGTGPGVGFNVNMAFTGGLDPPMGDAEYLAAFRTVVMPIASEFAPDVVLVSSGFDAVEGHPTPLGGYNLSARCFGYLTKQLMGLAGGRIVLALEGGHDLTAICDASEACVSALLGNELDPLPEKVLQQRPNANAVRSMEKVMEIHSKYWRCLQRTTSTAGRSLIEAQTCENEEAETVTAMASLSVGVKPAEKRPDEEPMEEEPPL
The target in assay [4] is HDAC9 (Homo sapiens, UniProt Q9UKV0). Kind of assay: Isoform selectivity, HDAC9 inhibition. The following applies: Table 9; recombinant human HDAC; read-out: IC50, Class IIa HDAC9.
Chain of HDAC9 (Q9UKV0 whole entry, canonical isoform): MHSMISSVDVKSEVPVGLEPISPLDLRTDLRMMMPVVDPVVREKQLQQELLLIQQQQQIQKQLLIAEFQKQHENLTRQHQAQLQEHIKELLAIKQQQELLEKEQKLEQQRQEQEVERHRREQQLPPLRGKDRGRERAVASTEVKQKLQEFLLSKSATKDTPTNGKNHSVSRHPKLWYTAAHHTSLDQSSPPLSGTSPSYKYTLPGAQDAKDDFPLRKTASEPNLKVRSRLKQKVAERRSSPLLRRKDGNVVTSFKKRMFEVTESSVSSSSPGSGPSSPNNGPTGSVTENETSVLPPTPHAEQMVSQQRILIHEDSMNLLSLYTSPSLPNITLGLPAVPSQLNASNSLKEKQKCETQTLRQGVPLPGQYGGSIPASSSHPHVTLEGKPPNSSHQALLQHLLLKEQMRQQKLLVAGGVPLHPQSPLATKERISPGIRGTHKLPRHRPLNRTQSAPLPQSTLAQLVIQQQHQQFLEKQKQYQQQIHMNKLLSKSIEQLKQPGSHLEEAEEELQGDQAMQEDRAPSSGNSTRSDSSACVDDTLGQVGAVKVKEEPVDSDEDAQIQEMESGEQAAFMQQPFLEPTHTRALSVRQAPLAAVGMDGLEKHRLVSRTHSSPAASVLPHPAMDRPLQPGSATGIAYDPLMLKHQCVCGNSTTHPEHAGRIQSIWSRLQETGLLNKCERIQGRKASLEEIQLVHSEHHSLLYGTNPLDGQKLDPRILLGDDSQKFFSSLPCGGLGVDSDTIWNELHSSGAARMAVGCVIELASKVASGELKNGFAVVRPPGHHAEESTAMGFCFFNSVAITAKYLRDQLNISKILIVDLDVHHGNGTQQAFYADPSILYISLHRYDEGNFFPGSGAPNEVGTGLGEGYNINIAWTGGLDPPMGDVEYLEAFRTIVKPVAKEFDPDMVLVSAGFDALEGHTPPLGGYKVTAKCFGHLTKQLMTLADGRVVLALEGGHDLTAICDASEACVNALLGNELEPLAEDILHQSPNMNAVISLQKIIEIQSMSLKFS
Assay [5] addresses HDAC5 (Homo sapiens, UniProt Q9UQL6). The assay is described as follows: Isoform selectivity, HDAC5 inhibition. The following applies: Table 9; recombinant human HDAC; read-out: IC50, Class IIa HDAC5.
For assay [6], the target named is T3, human HDAC6 enzyme (Homo sapiens, UniProt Q9UBN7).
T3 construct: purchased Cayman Chemical
T3 sequence (Q9UBN7 whole entry): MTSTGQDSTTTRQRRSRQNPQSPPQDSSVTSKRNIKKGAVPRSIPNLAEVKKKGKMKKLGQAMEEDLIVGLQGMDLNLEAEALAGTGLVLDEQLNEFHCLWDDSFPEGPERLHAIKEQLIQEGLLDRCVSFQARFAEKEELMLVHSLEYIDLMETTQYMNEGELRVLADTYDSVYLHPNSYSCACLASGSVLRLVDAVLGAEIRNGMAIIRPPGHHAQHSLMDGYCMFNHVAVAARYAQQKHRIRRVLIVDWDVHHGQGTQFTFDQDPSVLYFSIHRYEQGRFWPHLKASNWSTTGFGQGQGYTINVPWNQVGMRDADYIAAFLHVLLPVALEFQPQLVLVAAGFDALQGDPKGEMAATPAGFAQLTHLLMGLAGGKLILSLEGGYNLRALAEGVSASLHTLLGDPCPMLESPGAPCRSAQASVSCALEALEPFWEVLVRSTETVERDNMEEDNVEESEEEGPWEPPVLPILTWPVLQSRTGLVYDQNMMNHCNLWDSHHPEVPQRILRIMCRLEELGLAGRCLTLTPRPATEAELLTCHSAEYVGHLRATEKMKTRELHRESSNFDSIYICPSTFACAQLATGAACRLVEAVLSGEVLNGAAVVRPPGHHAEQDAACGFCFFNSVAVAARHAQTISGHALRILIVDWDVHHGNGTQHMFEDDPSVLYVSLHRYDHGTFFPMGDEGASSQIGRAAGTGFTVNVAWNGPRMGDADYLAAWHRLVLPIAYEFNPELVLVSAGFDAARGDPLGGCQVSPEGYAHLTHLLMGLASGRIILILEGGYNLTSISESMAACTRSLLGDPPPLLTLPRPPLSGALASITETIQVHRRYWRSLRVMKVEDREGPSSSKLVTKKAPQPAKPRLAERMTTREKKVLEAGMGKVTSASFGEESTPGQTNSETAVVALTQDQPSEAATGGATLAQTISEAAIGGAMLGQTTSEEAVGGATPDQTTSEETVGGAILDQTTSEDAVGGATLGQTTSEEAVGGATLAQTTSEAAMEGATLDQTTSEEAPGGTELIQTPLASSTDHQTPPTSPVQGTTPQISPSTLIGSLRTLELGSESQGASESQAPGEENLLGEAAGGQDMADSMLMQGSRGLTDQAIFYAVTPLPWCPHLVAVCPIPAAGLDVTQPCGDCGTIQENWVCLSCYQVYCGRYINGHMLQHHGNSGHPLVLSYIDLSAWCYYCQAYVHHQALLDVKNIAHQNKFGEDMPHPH
The assay is described as follows: Human HDAC6 enzyme assay (Class IIb HDACs). The following applies: Table 9; recombinant human HDAC. How it is done: The inhibitory effect of compounds on HDAC6 activity was assessed in vitro using an optimised assay performed in black/flat black wall 384-well plate (Corning Inc.). All reagents and compounds were prepared in HDAC assay buffer (25 mM Tris-HCl, 137 mM NaCl, 2.7 mM KCl, 1 mM MgCl2·H2O and 0.1 mg/mL bovine serum albumin; pH 8). Various concentrations of inhibitor were pre-incubated with 100 ng/ml human HDAC6 enzyme (Cayman Chemical) for 15 min at room temperature on a plate shaker. Substrate (Boc-Lys(Ac)-AMC, 25 μM) were then added and incubated for 60 min at 37° C. in the dark. The enzymatic reaction was then incubated with the developer solution (1 mg/mL trypsin and 10 μM SAHA) for 15-20 min at room temperature. Fluorescence intensity was measured using PHERAstar plate reader (BMG Labtech) at 350 nm excitation and 460 nm emission.
as §1

Setting [7] is: Table 8, recombinant human HDAC1, read-out: IC50 (nM) (HDAC1).
[8] abbreviates: Table 9, recombinant human HDAC, read-out: IC50, Class I HDAC1.

One may read the IC50 as the concentration that inhibits the measured activity by half.

Each structure is given as a SMILES string. Read-outs that look alike come from different tables or passages of the source.

T2 sequence (Q8WUI4 whole entry): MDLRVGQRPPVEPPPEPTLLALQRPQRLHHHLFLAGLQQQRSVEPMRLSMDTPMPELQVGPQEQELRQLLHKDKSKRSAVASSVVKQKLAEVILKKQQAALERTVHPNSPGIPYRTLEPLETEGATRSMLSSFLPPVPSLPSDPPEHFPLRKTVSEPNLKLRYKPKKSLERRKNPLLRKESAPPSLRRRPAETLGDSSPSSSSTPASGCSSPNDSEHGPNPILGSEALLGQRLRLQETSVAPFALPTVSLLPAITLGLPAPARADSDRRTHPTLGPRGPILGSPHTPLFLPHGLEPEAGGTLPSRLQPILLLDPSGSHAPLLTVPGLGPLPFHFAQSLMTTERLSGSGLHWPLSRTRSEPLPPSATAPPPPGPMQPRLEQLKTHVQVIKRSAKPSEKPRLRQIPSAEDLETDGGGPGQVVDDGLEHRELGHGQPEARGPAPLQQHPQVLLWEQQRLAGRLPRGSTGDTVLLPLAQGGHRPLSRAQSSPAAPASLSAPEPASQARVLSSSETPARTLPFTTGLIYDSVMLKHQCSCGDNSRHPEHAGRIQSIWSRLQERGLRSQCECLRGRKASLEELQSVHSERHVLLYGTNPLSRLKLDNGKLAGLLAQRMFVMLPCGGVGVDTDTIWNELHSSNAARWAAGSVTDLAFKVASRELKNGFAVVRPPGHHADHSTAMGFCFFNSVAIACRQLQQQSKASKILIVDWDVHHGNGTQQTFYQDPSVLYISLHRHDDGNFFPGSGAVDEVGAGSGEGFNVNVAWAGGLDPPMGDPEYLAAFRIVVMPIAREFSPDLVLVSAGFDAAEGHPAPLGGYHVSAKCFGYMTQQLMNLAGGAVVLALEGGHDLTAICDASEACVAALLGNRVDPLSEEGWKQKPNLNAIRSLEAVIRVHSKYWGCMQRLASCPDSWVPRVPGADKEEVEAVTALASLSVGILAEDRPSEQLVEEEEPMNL
T1 sequence (Q13547 whole entry): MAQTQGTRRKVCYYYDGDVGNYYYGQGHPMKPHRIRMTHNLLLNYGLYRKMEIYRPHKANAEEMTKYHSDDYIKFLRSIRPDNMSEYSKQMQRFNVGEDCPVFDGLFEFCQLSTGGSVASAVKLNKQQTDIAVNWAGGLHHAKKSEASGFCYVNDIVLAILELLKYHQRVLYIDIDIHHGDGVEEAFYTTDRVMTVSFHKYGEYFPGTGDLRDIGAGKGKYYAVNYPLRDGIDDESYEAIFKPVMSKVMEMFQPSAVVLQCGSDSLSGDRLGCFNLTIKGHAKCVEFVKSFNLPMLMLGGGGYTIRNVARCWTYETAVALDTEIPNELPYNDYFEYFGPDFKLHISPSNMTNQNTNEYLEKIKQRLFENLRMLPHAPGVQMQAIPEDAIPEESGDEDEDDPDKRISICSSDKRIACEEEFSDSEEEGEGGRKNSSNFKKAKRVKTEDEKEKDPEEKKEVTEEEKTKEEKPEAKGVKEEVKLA

As for `O=C(NCc1ccc(C(=O)NO)c(Br)c1)Nc1cccc2cccnc12` [Example 1, 2-bromo-N-hydroxy-4-((3-(quinolin-8-yl)ureido)methyl)benzamide, reference compound], the figures for the IC50 in assay [1] (setting [7]) and in assay [2] were 3840 ± 1630 nM and above 10000 nM, respectively.
As to `O=C(NCc1ccc(C(=O)NO)c(-c2ccccc2)c1)Nc1cccc2cccnc12` [Example 2], the IC50 in assay [1] (setting [7]) is 2360 ± 452 nM; in assay [2], 214 ± 54 nM.
For `O=C(NCc1ccc(C(=O)NO)c(Oc2ccccc2)c1)Nc1cccc2cccnc12` [Example 3, 2-phenoxy-N-hydroxy-4-((3-(quinolin-8-yl)ureido)methyl)benzamide, reference compound] the same measures were 2520 ± 1340 nM and above 10000 nM.
In the case of `Cc1cc(F)ccc1-c1cc(Cn2c(C)nc3ccccc3c2=O)ccc1C(=O)NO` [Example 13], the IC50 in assay [1] (setting [7]) stood at 4210 ± 1760 nM; in assay [2], 12 ± 1.2 nM.
Take `Cc1nc2ccccc2c(=O)n1Cc1ccc(C(=O)NO)c(-c2ccc(F)cc2)c1` [Example 14]: the 50% inhibitory concentration (IC50) in assay [1] (setting [7]) was found to be 3200 nM; in assay [3] it was 22 ± 3 nM; in assay [4], 15 ± 3 nM; in assay [5], 8 ± 1 nM; in assay [2], 6.4 ± 0.8 nM; in assay [6] it was 1300 ± 480 nM.
For `O=C(NCc1ccc(C(=O)NO)c(-c2ccccc2)c1)c1ccc[nH]1` [Example 23], the IC50 in assay [1] (setting [7]) is above 10000 nM; in assay [2] it was 81 ± 14 nM.
For `O=C(NCc1ccc(C(=O)NO)c(-c2ccccc2)c1)c1cc2ccccc2[nH]1` [Example 24] the same measures were above 10000 nM and 59 ± 10 nM.
On to `O=C(NO)c1ccc(Cn2cnc3ccccc3c2=O)cc1-c1ccccc1` [Example 34], for which, in assay [1] (setting [7]), the IC50 worked out at 3190 ± 816 nM.
Consider `CCc1nc2ccccc2c(=O)n1Cc1ccc(C(=O)NO)c(-c2ccccc2)c1` [Example 35], for which the concentration for half-maximal inhibition (IC50) in assay [1] (setting [7]) was found to be 5280 ± 3490 nM.
For the compound `O=C(NO)c1ccc(CN2C(=O)c3ccccc3C2=O)cc1-c1ccccc1` [Example 36], the IC50 in assay [1] (setting [7]) was 32000 nM; in assay [1] (setting [8]), 32000 nM; in assay [3], 28 ± 4 nM; in assay [4], 133 ± 52 nM; in assay [5], 12 ± 2 nM; in assay [6], 5700 nM.
Consider `O=C(NO)c1ccc(Cn2c(=O)cc[nH]c2=O)cc1-c1ccccc1` [Example 38], for which the IC50 in assay [1] (setting [7]) is above 10000 nM.
With `Cc1cc(=O)n(Cc2ccc(C(=O)NO)c(-c3ccccc3)c2)c(C)n1` [Example 45], in assay [1] (setting [7]), the IC50 was above 10000 nM.
Take `O=C(NO)c1ccc(CN2Cc3ccccc3C2=O)cc1-c1ccccc1` [Example 49]: the 50% inhibitory concentration (IC50) in assay [1] (setting [7]) worked out at 33000 nM.
Regarding `O=C(NCc1ccc(C(=O)NO)c(-c2ccccc2)c1)c1ccccc1F` [Example 50], in assay [1] (setting [7]), the IC50 turned out to be 16000 nM.
Same read-out and setting: the value for `O=C(NO)c1ccc(CN2C(=O)CCC2=O)cc1-c1ccccc1` [Example 51] was above 20000 nM.
`O=C(NO)c1ccc(CN2C(=O)c3cccnc3C2=O)cc1-c1ccccc1` [Example 53]: the concentration for half-maximal inhibition (IC50) in assay [1] (setting [7]) was 28000 nM.
On the same count and under the same terms, with `O=C(NO)c1ccc(CN2C(=O)c3ccncc3C2=O)cc1-c1ccccc1` [Example 54] the figure was above 20000 nM.
With `O=C(NO)c1ccc(CN2C(=O)c3cccc(F)c3C2=O)cc1-c1ccccc1` [Example 55], the IC50 in assay [1] (setting [7]) was 27000 nM; in assay [1] (setting [8]) it was 27000 nM; in assay [3], 13 ± 3 nM; in assay [4] it was 183 ± 102 nM; in assay [5], 16 ± 2 nM; in assay [6] it was 4400 nM.
In the case of `O=C(NO)c1ccc(CN2C(=O)c3ccccc3S2(=O)=O)cc1-c1ccccc1` [Example 56], the IC50 stood at 4900 nM in assay [1] (setting [7]); 4900 nM in assay [1] (setting [8]); 48 ± 6 nM in assay [3]; 93 ± 44 nM in assay [4]; 8 ± 1 nM in assay [5]; 5500 nM in assay [6].
With `CC(C)C(C(=O)Nc1ccc(C(=O)NO)c(-c2ccccc2)c1)c1ccccc1` (centres unmarked) [Example 59], the IC50 in assay [1] (setting [7]) is above 10000 nM; in assay [2], 555 ± 334 nM.
As to `CN(C)c1ccc(C2(C(=O)Nc3ccc(C(=O)NO)c(-c4ccccc4)c3)CCCC2)cc1` [Example 64], the results for the IC50 in assay [1] (setting [7]) and in assay [2] were above 10000 nM and 556 ± 317 nM, respectively.
For `O=C(NO)c1ccc(NC(=O)C2(c3ccc(Br)cc3)CCCC2)cc1-c1ccccc1` [Example 65] the same measures were 4900 ± 1710 nM and 1210 ± 700 nM.
For `NC(=O)c1ccc(Nc2ccc(C(=O)NO)c(-c3ccccc3)c2)cc1` [Example 79] the same measures were above 10000 nM and 43 ± 9 nM.
`Cc1nc2ccccc2c(=O)n1Cc1ccc(C(=O)NO)c(-c2ccccc2)c1` [compound 12]: the IC50 in assay [1] (setting [7]) worked out at 2200 nM; in assay [3], 42 ± 7 nM; in assay [4] it was 17 ± 3 nM; in assay [5], 9 ± 2 nM; in assay [2] it was 7.3 ± 1.2 nM; in assay [6], 1100 nM.
